The subject of one test is P. acnes NCTC 737. The test is described as follows: Minimum bactericidal concentration (MBC) assay. It is filed as cell-based, Propionibacterium acnes. Particulars: compound in DMSO, triplicate. The method, then: The first test micro-organism used was Propionibacterium acnes NCTC 737. This is a propionibacterial strain and is the type strain of the […]; it is fully susceptible to antibiotics.
The propionibacteria were cultured and maintained on Wilkins-Chalgren Anaerobe Medium (agar and broth) at pH 6.0; all cultures were incubated anaerobically at 37° C. for 72 hours.
(§1) This assay, normally carried out after an MIC assay, determines the minimum concentration of a compound that is lethal to the micro-organism being tested.
These samples were then individually sub-cultured on antibiotic-free agar medium, under the incubation conditions described above. Following incubation they were examined visually for microbial growth.
DDA assays, as described above, were carried out using as the test formulation the gel prepared in Example 2B above. Also tested was the Example 2B gel minus the Klucel™ thickener, which was also subjected to MIC and MBC assays. For the DDAs, which were performed in triplicate, 100 μl of the relevant formulation was loaded onto each disc, and zones of inhibition were recorded after 3 days' anaerobic incubation at 37° C. The MIC and MBC tests were performed in duplicate and the results recorded after 3 days and 7 days respectively, post-subculture onto drug-free medium.
The compounds copper (II) usnate (Just for Today Ltd), sodium usnate (Yick-Vic Chemicals) and usnic acid (Sigma-Aldrich) were tested against P. acnes NCTC 737, using MIC, MBC and DDA assays as described above. For copper usnate and usnic acid, supplemented DDA assays were also carried out. DMSO was used as the solvent for all three test compounds. For the DDAs, 200 μg of the relevant test compound was loaded onto each disc. The MIC and MBC assays were conducted in triplicate, as were the DDAs for copper usnate.

Another test concerns S. aureus ATCC 29213. Kind of test: MBC assay. It is filed as cell-based, Staphylococcus aureus. The settings on record: Mueller-Hinton broth pH 7.0. The source says: (§2) (a) staphylococci. The Staphylococcus aureus strain used was ATCC 29213. S. aureus and other staphylococci are common causes of a wide range of skin, skin structure and wound infections; S. aureus is also known to exacerbate eczema. The ATCC 29213 strain is known to be susceptible to beta-lactam antibiotics such as methicillin. The Staphylococcus epidermidis strain used was NCTC 11047. Staph. epidermidis forms part of the resident flora of skin and is an opportunistic pathogen which can cause biofilms to grow for instance on plastic surgical implants such as catheters. Unless otherwise stated, the staphylococci were cultured and maintained on Mueller-Hinton Medium (agar and broth) at pH 7.2; cultures were incubated aerobically at 37° C. for 19-20 hours, at pH 7 (±0.2). (b) C. striatum NCTC 764. Corynebacterium striatum is closely related to organisms (aerobic diphtheroids of the genus Corynebacterium) that cause body odour. It was cultured and maintained on Mueller-Hinton medium (agar and broth). All cultures were incubated aerobically at 37° C. for 72 hours, at pH 7 (±0.2). (c) streptococci. The strains tested were S. mutans ATCC 25175 and S. pyogenes ATCC 12344. S. mutans is a Gram-positive, microaerophilic bacterium which plays a significant role in dental caries and in infective endocarditis. Streptococcus pyogenes is associated with skin, soft tissue, burn and wound infections. S. mutans was cultured and maintained on Wilkins-Chalgren Anaerobe medium+1 g/L glucose (agar and broth); it was incubated in air at 37° C. for 48 hours, at pH 7 (±0.2) with 5% carbon dioxide. S. pyogenes was cultured and maintained on Mueller-Hinton medium (broth and agar) and was incubated under the same conditions as S. mutans. […]
Example 8 was repeated (except for the supplemented DDA assays), using S. aureus ATCC 29213 as the test organism. […] In the DDA assays, 200 μg is of each compound was loaded onto each disc: the culture medium was Mueller-Hinton agar at pH 7.0, and results were recorded after overnight incubation at 37° C. in air. […]

A further test concerns C. striatum NCTC 764. The test is described as follows: MBC assay. In kind it is cell-based, Corynebacterium striatum. The settings on record: triplicate.
Excerpt: (a) staphylococci. The Staphylococcus aureus strain used was ATCC 29213. S. aureus and other staphylococci are common causes of a wide range of skin, skin structure and wound infections; S. aureus is also known to exacerbate eczema. The ATCC 29213 strain is known to be susceptible to beta-lactam antibiotics such as methicillin. The Staphylococcus epidermidis strain used was NCTC 11047. Staph. epidermidis forms part of the resident flora of skin and is an opportunistic pathogen which can cause biofilms to grow for instance on plastic surgical implants such as catheters. Unless otherwise stated, the staphylococci were cultured and maintained on Mueller-Hinton Medium (agar and broth) at pH 7.2; cultures were incubated aerobically at 37° C. for 19-20 hours, at pH 7 (±0.2). (b) C. striatum NCTC 764. Corynebacterium striatum is closely related to organisms (aerobic diphtheroids of the genus Corynebacterium) that cause body odour. It was cultured and maintained on Mueller-Hinton medium (agar and broth). All cultures were incubated aerobically at 37° C. for 72 hours, at pH 7 (±0.2). (c) streptococci. The strains tested were S. mutans ATCC 25175 and S. pyogenes ATCC 12344. S. mutans is a Gram-positive, microaerophilic bacterium which plays a significant role in dental caries and in infective endocarditis. Streptococcus pyogenes is associated with skin, soft tissue, burn and wound infections. S. mutans was cultured and maintained on Wilkins-Chalgren Anaerobe medium+1 g/L glucose (agar and broth); it was incubated in air at 37° C. for 48 hours, at pH 7 (±0.2) with 5% carbon dioxide. S. pyogenes was cultured and maintained on Mueller-Hinton medium (broth and agar) and was incubated under the same conditions as S. mutans.
as §1
These samples were then individually sub-cultured on antibiotic-free agar medium, under the incubation conditions described above. Following incubation they were examined visually for microbial growth. […]

Another test concerns S. mutans ATCC 25175. The test is described as follows: MBC assay. The settings on record: Wilkins-Chalgren broth pH 7 (±0.2). It is filed as cell-based, Streptococcus mutans.
Excerpt: as §2, with “infections.” for “infections. S. mutans was cultured and maintained on Wilkins-Chalgren Anaerobe medium+1 g/L glucose (agar and broth); it was incubated in air at 37° C. for 48 hours, at pH 7 (±0.2) with 5% carbon dioxide. S. pyogenes was cultured and maintained on Mueller-Hinton medium (broth and agar) and was incubated under the same conditions as S. mutans.”

In brackets after ≈: the same amount, converted by molar mass. Read-outs that look alike come from different tables or passages of the source.

On to `CC(=O)c1c([O-])c(C)c([O-])c2c1OC1=CC(=O)C(C(C)=O)C(=O)C12C.[Cu+2]` (centres unmarked) [Copper usnate, copper (II) usnate], for which the minimal bactericidal concentration (MBC) (in general, the smallest concentration meeting the test's criterion for killing) worked out at 1.95 µg/mL against P. acnes NCTC 737, 62.5 µg/mL against S. aureus ATCC 29213, 62.5 µg/mL in the test on C. striatum NCTC 764 and 31.25 µg/mL in the test on S. mutans ATCC 25175.
In the case of `CC(=O)c1c(O)c(C)c(O)c2c1OC1=CC(=O)C(C(C)=O)C(=O)C12C` (centres unmarked) [Usnic acid, 2,6-diacetyl-7,9-dihydroxy-8,9b-dimethyl-1,3(2H,9bh)-dibenzofurandione], the minimal bactericidal concentration (MBC) in the test on P. acnes NCTC 737 (Cutibacterium acnes, NCTC737, read-out: MBC) is 31.2 µg/mL (≈ 90.8 µM); in the test on S. aureus ATCC 29213 (Staphylococcus aureus, ATCC29213, read-out: MBC), 250 µg/mL (≈ 726 µM); in the test with C. striatum NCTC 764 (Corynebacterium striatum, NCTC764, read-out: MBC), 62.5 µg/mL (≈ 182 µM); in the test on S. mutans ATCC 25175 (Streptococcus mutans, ATCC25175, read-out: MBC) it was 125 µg/mL (≈ 363 µM).

The record behind these values is patent US20120270935A1, “FORMULATIONS” (priority 2009, published 2012).
